Results on two molecules are retold here after patent US20260137742A1, “Composition for Activating Transient Receptor Potential Ankyrin 1, and Composition for Enhancing Food Consumption and/or Ameliorating Decreased Appetite” (HOUSE FOODS GROUP INC., priority 2022, published 2026).

For test [1], the target named is T1, human TRPA1 (hTRPA1) (Homo sapiens, UniProt O75762).
T1 construct: expressed in transfected cells
Kind of test: Intracellular Ca2+ Imaging Assay 3 (with or without TRPA1-specific antagonist A-967079). Format: cell-based. The protocol: (§1) A DNA coding for human TRPA1 (hTRPA1) (GenBank accession number: NM_007332.3) was inserted into the pcDNA5/TO vector (Invitrogen) to create an expression vector. This expression vector was transfected into T-REx™-293 cells (Invitrogen) by a conventional method using Lipofectamine LTX (Invitrogen). Using 10% fetal bovine serum (FBS, Cytiva), 400μ/mL hygromycin B, and 5 μg/mL blasticidin S, which were added to Dulbecco's Modified Eagle Medium (DMEM, Nacalai Tesque) as drug selection medium, the transfectants were cultured by a conventional method and cloned to obtain an hTRPA1 stable expression cell line.
(§2) Next, an hTRPA1 stable expression cell line whose hTRPA1 expression had been induced in advance by a conventional method was prepared in a 96-well clear-bottom plate; after washing each well with PBS, 50 μL of assay buffer (Hank's Balanced Salt Solution without calcium and magnesium ions, containing 1 mM CaCl2 dihydrate, 20 mM HEPES, 0.1% BSA, and 4 μM Calbryte™ 520 AM (manufactured by AAT BioQuest)) was added and incubated for 45 minutes at 33° C. After washing with assay buffer, 100 μL of assay buffer was added to each well.
(§3) This plate was set in FlexStation3 (Molecular Devices) and the fluorescence intensity (excitation at 490 nm, emission at 525 nm) was measured every 2 seconds at 31° C.; 30 seconds after the start of measurement, 100 μL of assay buffer containing the negative control DMSO (final concentration: 20 μL/mL), the positive control allyl isothiocyanate (AITC) (AITC was dissolved in DMSO; final concentration: 30 μM), each mushroom extract solution described above, or lenthionine (manufactured by Ambeed, Inc.) (lenthionine was dissolved in DMSO; final concentration: 50 μM) was added. In addition, to determine the reference for fluorescence intensity, wells to which assay buffer containing ionomycin (final concentration: 10 µM after addition) was added were prepared instead of the test samples.
(§4) Fluorescence intensity measurement was continued until 120 seconds from the start; the TRPA1-activating ability of the test samples and so forth was calculated using the formula below.
Samples of 30 μM AITC, 100 μM or 5 μM lenthionine, or DMSO were used; the test was performed either in the presence of the TRPA1-specific antagonist A-967079 (1 μM) or in the absence thereof (DMSO: 20 μL/mL); apart from this, the procedure was the same as in (3) above, and the TRPA1-activating abilities of each sample were measured.

A further test deals with Male ICR mice. Kind of test: Test 1 for Ameliorating Decreased Appetite (food intake in mice after single gastric gavage). The test is classed as in vivo. The conditions noted are these: for Food Intake (Mean ± Standard Error, n = 10): lenthionine 50 μmol/kg body weight, single gastric gavage, 30 minutes after start of feeding. As to the method: Male ICR mice were kept in individual cages with ALPHA-dri (Shepherd Specialty Papers) as bedding, and they were fed a powdered diet (CE-2, CLEA Japan) using a powder feeder for mice (SN-950, Shinano Seisakusho Co., Ltd.), with ad libitum feeding and free access to water, for at least one week for acclimatization. During the few days prior to the experiment, daily handling and gavage training using a feeding needle (FG4202, Fuchigami Kikai) were performed.
As test samples, the following were prepared for each of carrier solution (containing, by volume, 5% dimethyl sulfoxide, 1% Tween80, and 94% corn oil) and lenthionine solution (carrier solution containing 0.94 mg lenthionine per 1 mL): one containing the TRPA1-specific antagonist A-967079 (1.0 μmol of A-967079 per 1 mL of the carrier solution) and one not containing it; one of these was administered to 11- to 12-week-old mice under ad libitum feeding conditions by a single gastric gavage at 9:20 a.m. at 10 mL/kg body weight. The dose of lenthionine in molar terms was 50 μmol/kg body weight. Immediately after the single gavage, at 9:30 a.m., the powdered feeder inside the cage was replaced with a new feeder loaded with powdered diet whose mass had been measured beforehand; this time point was set as the start of the feeding experiment. Thirty minutes after the start of the feeding experiment, the mass of the feeder and any spilled feed in the cage was measured, and the food intake (g) was calculated (n=10).

In test [2] the target is T1, human TRPA1 (hTRPA1). Kind of test: Intracellular Ca2+ Imaging Assay 2 (stepwise concentrations 0.01 μM-300 μM). The test is classed as cell-based. The protocol:
as §1, §2, §3, §4
Aside from using samples in which the concentrations of AITC or lenthionine were set stepwise in the range of 0.01 μM-300 μM, the procedure was the same as in (2) above; the TRPA1-activating abilities of each sample were measured.

The target in test [3] is T1, human TRPA1 (hTRPA1). Kind of test: Intracellular Ca2+ Imaging Assay 1 (TRPA1 activation rate, hTRPA1 stable expression cell line). The test is classed as cell-based. As to conditions: for TRPA1 Activation Rate (Mean ± Standard Error): relative to ionomycin, n = 6. As to the method:
as §1
Two hundred microliters of each mushroom extract solution prepared in item 1 (1) was dispensed and the solvent was removed under vacuum using a desiccator. The dried residue left in the container was dissolved in 1 mL of assay buffer (Hank's Balanced Salt Solution without calcium and magnesium ions, containing 1 mM CaCl2 dihydrate, 20 mM HEPES, and 0.1% BSA). […]
as §3, §4
Fmax[s]: maximum fluorescence intensity after adding the test sample or positive control […]
Fmax[I]: maximum fluorescence intensity after adding ionomycin

Structures are written as SMILES.

T1 sequence (O75762 whole entry): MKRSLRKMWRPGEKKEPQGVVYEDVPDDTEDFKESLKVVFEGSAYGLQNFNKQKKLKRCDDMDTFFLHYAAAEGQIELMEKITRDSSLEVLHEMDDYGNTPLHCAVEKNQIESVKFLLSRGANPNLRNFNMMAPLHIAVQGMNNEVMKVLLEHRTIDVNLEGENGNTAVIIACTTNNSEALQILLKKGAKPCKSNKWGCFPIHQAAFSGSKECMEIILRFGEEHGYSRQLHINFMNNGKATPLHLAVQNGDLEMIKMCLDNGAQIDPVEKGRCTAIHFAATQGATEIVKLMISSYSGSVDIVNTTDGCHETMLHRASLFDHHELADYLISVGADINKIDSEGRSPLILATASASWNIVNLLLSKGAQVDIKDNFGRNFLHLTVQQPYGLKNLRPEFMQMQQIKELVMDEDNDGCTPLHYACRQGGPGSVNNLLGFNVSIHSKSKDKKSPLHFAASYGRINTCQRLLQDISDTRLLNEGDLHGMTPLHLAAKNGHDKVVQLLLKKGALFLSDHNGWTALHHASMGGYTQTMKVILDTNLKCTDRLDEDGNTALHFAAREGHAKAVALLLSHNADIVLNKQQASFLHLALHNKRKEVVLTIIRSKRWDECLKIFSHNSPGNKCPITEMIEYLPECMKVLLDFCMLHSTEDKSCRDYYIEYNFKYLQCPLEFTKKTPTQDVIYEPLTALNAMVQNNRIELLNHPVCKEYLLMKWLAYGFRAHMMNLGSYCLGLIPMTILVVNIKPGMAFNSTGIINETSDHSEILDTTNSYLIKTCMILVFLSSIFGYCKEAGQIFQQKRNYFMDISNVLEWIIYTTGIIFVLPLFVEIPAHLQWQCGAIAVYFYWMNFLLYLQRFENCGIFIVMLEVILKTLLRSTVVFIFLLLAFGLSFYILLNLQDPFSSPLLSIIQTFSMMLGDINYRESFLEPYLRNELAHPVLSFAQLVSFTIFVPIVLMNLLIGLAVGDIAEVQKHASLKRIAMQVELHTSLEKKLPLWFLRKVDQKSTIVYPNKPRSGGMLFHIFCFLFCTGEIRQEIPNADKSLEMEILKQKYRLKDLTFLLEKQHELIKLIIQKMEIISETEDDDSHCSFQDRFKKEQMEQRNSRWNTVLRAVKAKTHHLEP

As to `C1SSCSSS1` [Lenthionine, 1,2,3,5,6-pentathiepane], the “TRPA1 Activation Rate (Mean ± Standard Error, n = 6)” value at human TRPA1 (hTRPA1) [1] (5 μM, No Antagonist (DMSO 20 μL/mL)) is listed as 64.6 ± 1.38%; on human TRPA1 (hTRPA1) [1] (5 μM, With Antagonist A-967079 (1 μM)), 1.46 ± 0.14 %; on human TRPA1 (hTRPA1) [1] (100 μM, No Antagonist (DMSO 20 μL/mL)), 133 ± 1.36%; on human TRPA1 (hTRPA1) [1] (100 μM, With Antagonist A-967079 (1 μM)), 1.61 ± 0.37 %; on human TRPA1 (hTRPA1) [2] (0.01 μM) it was 2.64 ± 0.19%; on human TRPA1 (hTRPA1) [2] (0.1 μM), 2.42 ± 0.14%. Besides, the “TRPA1 Activation Rate (Mean ± Standard Error, n = 6)” value at human TRPA1 (hTRPA1) [2] (0.5 μM) is 10.2 ± 0.82%; at human TRPA1 (hTRPA1) [2] (1 μM), 22.3 ± 1.04%; at human TRPA1 (hTRPA1) [2] (5 μM) it was 53.8 ± 2.29%; on human TRPA1 (hTRPA1) [2] (10 μM), 72.5 ± 2.88%; on human TRPA1 (hTRPA1) [2] (50 μM) it was 92.6 ± 3.83%; at human TRPA1 (hTRPA1) [2] (100 μM), 104 ± 1.94%. The “TRPA1 Activation Rate (Mean ± Standard Error, n = 6)” value on human TRPA1 (hTRPA1) [2] (300 μM) is 118 ± 2.65%. For the same molecule, the “TRPA1-activating effect in presence of TRPA1-specific antagonist (in words)” value at human TRPA1 (hTRPA1) [1] (A-967079 1 μM) is “inhibited by the TRPA1-specific antagonist”. The “Food Intake (Mean ± Standard Error, n = 10)” value with Male ICR mice (No Antagonist) is 0.117 ± 0.035 g; with Male ICR mice (With Antagonist A-967079 (1.0 μmol per 1 mL)) it was 0.025 ± 0.023 g. The “Food intake versus carrier solution (in words)” value with Male ICR mice (lenthionine solution with TRPA1-specific antagonist A-967079) was “no increase in food intake was observed”; with Male ICR mice (lenthionine solution, No Antagonist) it was “food intake increased”. Besides, at human TRPA1 (hTRPA1) [2] (0.01 μM-300 μM, compared with AITC), the “TRPA1-activating effect, concentration dependence (in words)” value is “activated TRPA1 in a concentration-dependent manner, at similar intensity to AITC”. Also, the “TRPA1-activating effect (in words)” value on human TRPA1 (hTRPA1) [3] (Ca2+ imaging assay 1, summary of Table 1) is “activated TRPA1”. Moreover, on human TRPA1 (hTRPA1) [3] (lenthionine 50 μM final concentration), the “TRPA1 Activation Rate (Mean ± Standard Error)” value is 93.0 ± 3.70%.
In the case of `C=CCN=C=S` [AITC, allyl isothiocyanate, reference compound], the “TRPA1 Activation Rate (Mean ± Standard Error, n = 6)” value at human TRPA1 (hTRPA1) [1] (30 μM, No Antagonist (DMSO 20 μL/mL)) turned out to be 156 ± 1.38%; on human TRPA1 (hTRPA1) [1] (30 μM, With Antagonist A-967079 (1 μM)), 1.22 ± 0.06 %; at human TRPA1 (hTRPA1) [2] (0.01 μM), 4.02 ± 0.50%; on human TRPA1 (hTRPA1) [2] (0.1 μM), 5.20 ± 0.19%; on human TRPA1 (hTRPA1) [2] (0.5 μM) it was 6.19 ± 0.32%; at human TRPA1 (hTRPA1) [2] (1 μM), 13.0 ± 1.79%. For the same molecule, the “TRPA1 Activation Rate (Mean ± Standard Error, n = 6)” value is given as 64.0 ± 4.13% on human TRPA1 (hTRPA1) [2] (5 μM); 85.2 ± 3.76% on human TRPA1 (hTRPA1) [2] (10 μM); 105 ± 1.86% on human TRPA1 (hTRPA1) [2] (50 μM); 117 ± 2.57% on human TRPA1 (hTRPA1) [2] (100 μM); 119 ± 2.74% at human TRPA1 (hTRPA1) [2] (300 μM). Moreover, on human TRPA1 (hTRPA1) [3] (AITC 30 μM final concentration), the “TRPA1 Activation Rate (Mean ± Standard Error)” value was determined as 106 ± 1.89%.
